{"source": "patent US8710097B2", "about": "“Flavonoid dimers and methods of making and using such” (The Hong Kong Polytechnic University, priority 2006, dated 2014)", "key": {"[1]": {"system": "pentamidine-resistant L. enriettii LePentR50 promastigotes", "assay": "microbe, parasite or virus in culture", "conditions": "for IC50: Leishmania enriettii, 72 h, read-out: IC50(μM) of synthetic flavonoid, LePentR50, cytotoxicity of compound alone, 72 hrs; for pentamidine sensitization: LePentR50, FIG. 18A", "procedure": "(§1) Cell lines and Cell Culture. Promastigotes of Leishmania enriettii (LePentR50, Le wild type, LeMDR1 −/− and LeMDR1-overexpressed LeV160 mutants) and Leishmania donovani (LdAG83, Ld2001 and Ld39) were employed in this study. The former is a natural infective strain of guinea pig and the latter is a clinical strain, which may cause visceral leishmaniasis in human. Both strains were cultured in Schneider's Drosophila Medium (Invitrogen), pH 6.9 supplemented with 10% (v/v) heat inactivated fetal calf serum (Hyclone) with 4 mM glutamine (Sigma) and 25 μg/mL gentamicin solution (Invitrogen), at 27° C. for 4 days (Cloning and functional analysis of an extrachromosomally amplified multidrug resistance-like gene in Leishmania enriettii. Mol. Biochem. Parasitol 1993, 60, 195-208).\nPromastigotes of LeV160 were culture in the presence of 160 μg/mL vinblastine. No pentamidine and vinblastine (Sigma) was added to the Le wild type and LeMDR1 −/− mutant.\n(§2) The viability of promastigotes was determined by the Cell Titer 96® Aqueous Assay (Promega) that employs a tetrazolium compound (MTS) and electron coupling reagent, phenazine methosulfate (PMS). Promastigotes were seeded into 96-well flat bottom microtiter plate at 1×10^5 cells per well in a final volume of 100 μL medium. To determine the cytotoxic effects of flavonoid dimers to the parasites, various concentrations of flavonoid dimers were added to the promastigotes. To determine the reversal effects of flavonoid dimers with different spacer lengths, various concentrations of antileishmanial drugs, one of pentamidine or SSG, vinblastine and puromycin was added to the wells with or without flavonoid dimers. The parasites were incubated at 27° C. for 72 hrs. Each concentration of antileishmanials with or without the flavonoid dimers was tested in triplicates in each experiment. A 2 mg/mL MTS and 0.92 mg/mL PMS were mixed at a ratio of 20:1 (MTS: PMS). After 72-hr incubation, 10 μL of MTS:PMS mixture was added into each well of microtiter plate. The plate was then incubated at 27° C. for 4 hrs for color development. After 4 hrs of incubation, the OD values were determined at 490 nm using automatic microtiter plate reader (Bio-Rad)."}, "[2]": {"system": "wild type L. donovani LdAG83 promastigotes", "assay": "Leishmania cell viability (MTS) assay", "assay_type": "cell-based, Leishmania donovani", "conditions": "Leishmania donovani, read-out: IC50(μM) of synthetic flavonoid, LdAG83", "procedure": "as §1, with “195-208). […]” for “195-208).”\nas §2"}, "[3]": {"system": "SSG-resistant L. donovani Ld39 promastigotes", "assay": "microbe, parasite or virus in culture", "assay_type": "cell-based, Leishmania donovani", "conditions": "for SSG resistance modulating activity: Ld39, FIG. 14B; for IC50: Leishmania donovani, 72 h, read-out: IC50(μM) of synthetic flavonoid, Ld39", "procedure": "as §1, with “195-208). […]” for “195-208).”\nas §2"}, "MDA435/LCC6 MDR cells": {"system": "MDA435/LCC6 MDR cells", "assay": "cells", "conditions": "for doxorubicin sensitization / reversing effect on taxol resistance: MDA435/LCC6 MDR; for doxorubicin sensitization: dimers; for reversing effect on taxol resistance: dimers at 5 μM; for reversing activity compared with verapamil: LCC6MDR, taxol, 5 μM", "procedure": "MDA435/LCC6 and P388 (both parent and MDR subtype) were maintained in DMEM and RPMI 1640 culture medium supplemented with 10% FBS, respectively. RPMI 1640 media also contained 100 units/ml penicillin and 100 μg/ml streptomycin. Cells were cultured at 37° C. in a humidified atmosphere with 5% CO2. A solution of 0.05% trypsin-EDTA was used to detach the MDA435/LCC6 (both wild type and MDR subtype) cells.\nCell proliferation assay. MDA435/LCC6 and P388 (both parent and MDR subtype) cells were seeded at 2000 and 5000 cells per well, respectively, in 96-well plates. Varying concentrations of anticancer drugs (Doxorubicin, Daunorubicin, Vincristine, Vinblastine, taxol, Mitoxantrone) with or without the flavonoid dimers were added in a final volume of 200 μl and cells were grown for 4 and 3 days for MDA435/LCC6 and P388 (both parent and MDR subtype) cells, respectively. For MDA435/LCC6 (both parent and MDR subtype), the corresponding drugs were added after cell attachment (24 hr incubation). To measure cell proliferation, the cell Titer 960 Aqueous Assay (Promega) was used according to the manufacturer's instructions. Briefly, MTS (2 mg/ml) and PMS (0.92 mg/ml) were mixed in a ratio of 20:1. 30 μl MTS/PMS mixture was added into each well and incubated for 2 hours at 37° C. Optical absorbance at 490 nm was then recorded using an ELISA microtiter plate reader (Bio-Rad). Each experiment was done at least in triplicate and repeated twice. Cytotoxicity of the anticancer drugs was expressed as the fraction of the cells survived relative to the untreated DMSO (0.05%) solvent controls.\nMDA435/LCC6 is an estrogen-independent human breast cancer cell line. Its MDR subtype (MDA435/LCC6 MDR) was generated by transducing a retroviral vector directing the constitutive expression of the human MDR1 cDNA, producing a cell line with a classical MDR1 resistance pattern (MDA435/LCC6 and MDA435/LCC6MDR1: ascites models of human breast cancer. Br J Cancer 1996, 73, 154-161). The ability of the apigenin dimers of this invention to reverse taxol resistance in MDA435/LCC6 MDR cells were tested. […] Apigenin monomers 10a and 10b at 10 μM were used as the negative controls."}, "P388/ADR cells": {"system": "P388/ADR cells", "assay": "Doxorubicin accumulation", "assay_type": "cell-based, murine", "conditions": "monomer 10b at double concentration of the dimers, FIG. 11A", "procedure": "For P388 (both parent and MDR subtype) cells, 1 ml (10^5 cells) confluent cells were aliquot into Eppendorf tube and pre-incubated with flavone dimers for 30 min at 37° C. Doxorubicin (final concentration of 10 μM) was then added and incubated for 2 h at 37° C. at a final concentration of 10 μM. The cell pellets were washed 3 times with cold PBS by using an Eppendorf micro-centrifuge and lysed with 0.3N HCL in 50% ethanol, and sonicated for 30s. After centrifugation at 10000 rpm/min for 3 min, the supernatant was saved. The fluorescence of doxorubicin was measured using a spectrofluorometer (λexcite=470 nm, λemit=585 nm)."}}, "note": "Read-outs that look alike come from different tables or passages of the source.", "data": [{"smiles": "O=c1cc(-c2ccc(O)cc2)oc2cc(O)cc(O)c12", "note": "[Apigenin, reference compound]", "values": [{"measurement": "IC50", "setting": "[1]", "result": "55 ± 2.6", "unit": "µM"}, {"measurement": "IC50", "setting": "[2]; cytotoxicity of compound alone, 72 hrs", "result": "32 ± 4.1", "unit": "µM"}, {"measurement": "SSG resistance modulating activity", "setting": "[3]; 12 μM", "result": "did not give any significant modulating activity"}, {"measurement": "IC50", "setting": "[3]", "result": "43 ± 5.9", "unit": "µM"}]}, {"smiles": "O=c1cc(-c2ccc(OCCOc3ccc(-c4cc(=O)c5c(O)cc(O)cc5o4)cc3)cc2)oc2cc(O)cc(O)c12", "note": "[Compound 9a, 1,4-Bis[4′-((5,7-dihydroxy)-4H-chromen-4-on-2-yl)phenyl]-1,4-dioxabutane]", "values": [{"measurement": "doxorubicin sensitization", "setting": "MDA435/LCC6 MDR cells", "result": "very little or no doxorubicin sensitization"}, {"measurement": "reversing effect on taxol resistance", "setting": "MDA435/LCC6 MDR cells", "result": "little or no reversing effect"}, {"measurement": "activity on doxorubicin accumulation", "setting": "P388/ADR cells", "result": "little or no activity at all"}, {"measurement": "IC50", "setting": "[1]", "result": "> 200", "unit": "µM"}, {"measurement": "IC50", "setting": "[2]; 72 h", "result": "95 ± 3.2", "unit": "µM"}, {"measurement": "SSG resistance modulating activity", "setting": "[3]; dimers at 6 μM", "result": "did not show substantial SSG resistance modulating activity"}, {"measurement": "IC50", "setting": "[3]", "result": "117 ± 10", "unit": "µM"}]}, {"smiles": "O=c1cc(-c2ccc(OCCOCCOCCOCCOCCOc3ccc(-c4cc(=O)c5c(O)cc(O)cc5o4)cc3)cc2)oc2cc(O)cc(O)c12", "note": "[Compound 9e, 1,16-Bis[4′-((5,7-dihydroxy)-4H-chromen-4-on-2-yl)phenyl]-1,4,7,10,13,16-hexaoxahexadecane]", "values": [{"measurement": "doxorubicin sensitization", "setting": "MDA435/LCC6 MDR cells", "result": "very little or no doxorubicin sensitization"}, {"measurement": "reversing effect on taxol resistance", "setting": "MDA435/LCC6 MDR cells", "result": "little or no reversing effect"}, {"measurement": "activity on doxorubicin accumulation", "setting": "P388/ADR cells", "result": "little or no activity at all"}, {"measurement": "IC50", "setting": "[1]", "result": "70 ± 3", "unit": "µM"}, {"measurement": "IC50", "setting": "[2]; 72 h", "result": "30 ± 1.2", "unit": "µM"}, {"measurement": "IC50", "setting": "[3]", "result": "42 ± 2.3", "unit": "µM"}]}, {"smiles": "O=c1cc(-c2ccc(OCCOCCOCCOCCOCCOCCOc3ccc(-c4cc(=O)c5c(O)cc(O)cc5o4)cc3)cc2)oc2cc(O)cc(O)c12", "note": "[Compound 9f, 1,19-Bis[4′-((5,7-dihydroxy)-4H-chromen-4-on-2-yl)phenyl]-1,4,7,10,13,16,19-heptaoxanonadecane]", "values": [{"measurement": "doxorubicin sensitization", "setting": "MDA435/LCC6 MDR cells", "result": "very little or no doxorubicin sensitization"}, {"measurement": "reversing effect on taxol resistance", "setting": "MDA435/LCC6 MDR cells", "result": "little or no reversing effect"}, {"measurement": "IC50", "setting": "[1]", "result": "40 ± 5.3", "unit": "µM"}, {"measurement": "IC50", "setting": "[2]; 72 h", "result": "11 ± 2", "unit": "µM"}, {"measurement": "IC50", "setting": "[3]", "result": "13 ± 0.6", "unit": "µM"}]}, {"smiles": "O=c1cc(-c2ccc(OCCOCCOCCOCCOCCOCCOCCOCCOCCOc3ccc(-c4cc(=O)c5c(O)cc(O)cc5o4)cc3)cc2)oc2cc(O)cc(O)c12", "note": "[Compound 9i, 1,28-Bis[4′-((5,7-dihydroxy)-4H-chromen-4-on-2-yl)phenyl]-1,4,7,10,13,16,19,22,25,28-decaoxaoctacosane]", "values": [{"measurement": "IC50", "setting": "[2]; 72 h", "result": "10 ± 0.3", "unit": "µM"}, {"measurement": "IC50", "setting": "[3]", "result": "14 ± 0.1", "unit": "µM"}]}, {"smiles": "O=c1cc(-c2ccc(OCCOCCOCCOCCOc3ccc(-c4cc(=O)c5ccccc5o4)cc3)cc2)oc2ccccc12", "note": "[Compound 35a, 1,13-Bis[4′-(4H-chromen-4-on-2-yl)phenyl]-1,4,7,10,13-pentaoxamidecane]", "values": [{"measurement": "reversing activity compared with verapamil", "setting": "MDA435/LCC6 MDR cells", "result": "stronger reversing activity than verapamil"}]}, {"smiles": "O=c1cc(-c2ccc(OCCOCCOCCOCCOc3ccc(-c4cc(=O)c5ccc(F)cc5o4)cc3)cc2)oc2cc(F)ccc12", "note": "[Compound 35b, 1,13-Bis[4′-(7-fluoro-4H-chromen-4-on-2-yl)phenyl]-1,4,7,10,13-pentaoxamidecane]", "values": [{"measurement": "reversing activity compared with verapamil", "setting": "MDA435/LCC6 MDR cells", "result": "stronger reversing activity than verapamil"}]}, {"smiles": "O=c1cc(-c2ccc(OCCOCCOCCOCCOc3ccc(-c4cc(=O)c5cc(Cl)cc(Cl)c5o4)cc3)cc2)oc2c(Cl)cc(Cl)cc12", "note": "[Compound 35f, 1,13-Bis[4′-(6,8-dichloro-4H-chromen-4-on-2-yl)phenyl]-1,4,7,10,13-pentaoxamidecane]", "values": [{"measurement": "reversing activity compared with verapamil", "setting": "MDA435/LCC6 MDR cells", "result": "stronger reversing activity than verapamil"}]}, {"smiles": "Cc1ccc2c(=O)cc(-c3ccc(OCCOCCOCCOCCOc4ccc(-c5cc(=O)c6ccc(C)cc6o5)cc4)cc3)oc2c1", "note": "[Compound 35g, 1,13-Bis[4′-(7-methyl-4H-chromen-4-on-2-yl)phenyl]-1,4,7,10,13-pentaoxamidecane]", "values": [{"measurement": "reversing activity compared with verapamil", "setting": "MDA435/LCC6 MDR cells", "result": "stronger reversing activity than verapamil"}]}, {"smiles": "Cc1ccc2oc(-c3ccc(OCCOCCOCCOCCOc4ccc(-c5cc(=O)c6cc(C)ccc6o5)cc4)cc3)cc(=O)c2c1", "note": "[Compound 35h, 1,13-Bis[4′-(6-methyl-4H-chromen-4-on-2-yl)phenyl]-1,4,7,10,13-pentaoxamidecane]", "values": [{"measurement": "reversing activity compared with verapamil", "setting": "MDA435/LCC6 MDR cells", "result": "stronger reversing activity than verapamil"}]}, {"smiles": "CCN(CC)CCCC(C)Nc1c2ccc(Cl)cc2nc2ccc(OC)cc12", "note": "(stereo not drawn) [quinacrine, reference compound]", "values": [{"measurement": "pentamidine sensitization", "setting": "[1]", "result": "~4.5", "unit": "fold"}]}, {"smiles": "C=C[C@H]1C[N@@]2CC[C@H]1C[C@@H]2[C@@H](O)c1ccnc2ccc(OC)cc12", "note": "[quinidine, reference compound]", "values": [{"measurement": "pentamidine sensitization", "setting": "[1]", "result": "less than half-fold sensitization"}]}, {"smiles": "C=C[C@H]1C[N@@]2CC[C@H]1C[C@H]2[C@H](O)c1ccnc2ccc(OC)cc12", "note": "[quinine, reference compound]", "values": [{"measurement": "pentamidine sensitization", "setting": "[1]", "result": "less than half-fold sensitization"}]}, {"smiles": "COC(=O)[C@H]1[C@H]2C[C@@H]3c4[nH]c5cc(OC)ccc5c4CCN3C[C@H]2C[C@@H](OC(=O)c2cc(OC)c(OC)c(OC)c2)[C@@H]1OC", "note": "[reserpine, reference compound]", "values": [{"measurement": "pentamidine sensitization", "setting": "[1]", "result": "~3.2", "unit": "fold"}]}]}
